According to patent US11992473B2, “Compositions and methods for diagnosis and treatment of conditions related to the quality of aging and longevity” (Epitracker, Inc., priority 2018, dated 2024):

Key:
Format in all cases: cell-based, human
[1] = tested on: Venular endothelial cells, peripheral blood mononuclear cells; test: BioMAP Diversity PLUS LPS system (Th1 type chronic inflammation, monocyte activation); settings: for secretion of prostaglandin E2 (PGE2): human cell system mimicking T-cell and monocyte driven chronic inflammation and cardiovascular diseases (FIG. 4)
Method: (§1) This study examined activities of small molecules discovered in dolphin serum that had protective profiles against diseases of aging which can impact quality of life and longevity. These molecules were tested across 12 human primary cell-based systems as part of DiscoverX's BioMAP Diversity Plus program. These systems are designed to model complex human tissue and disease biology of the vasculature, skin, lung, and inflammatory tissues. Quantitative measurements of biomarker activities across this broad panel, along with comparative analysis of biological activities of known bioactive agents were used to predict and compare the efficacy and function of the four compounds. Compounds were tested at four concentrations (740 nm and 2.2, 6.7 and 20 μM).
(§2) BioMAP panels consist of human primary cell-based systems designed to model different aspects of the human body in an in vitro format. The 12 systems in the Diversity PLUS panel allow test agent characterization in an unbiased way across a broad set of systems modeling various human disease states. BioMAP systems are constructed with one or more primary cell types from healthy human donors, with stimuli (such as cytokines or growth factors) added to capture relevant signaling networks that naturally occur in human tissue or pathological conditions. Vascular biology is modeled in both a Th1 (3C system) and a Th2 (4H system) inflammatory environment, as well as in a Th1 inflammatory state specific to arterial smooth muscle cells (CASM3C system). Additional systems recapitulate aspects of the systemic immune response including monocyte-driven Th1 inflammation (LPS system) or T cell stimulation (SAg system), chronic Th1 inflammation driven by macrophage activation (lMphg system) and the T cell-dependent activation of B cells that occurs in germinal centers (BT system). The BE3C system (Th1) and the BF4T system (Th2) represent airway inflammation of the lung, while the MyoF system models myofibroblast-lung tissue remodeling. Lastly, skin biology is addressed in the KF3CT system modeling Th1 cutaneous inflammation and the HDF3CGF system modeling wound healing.
(§3) Each test agent generates a signature BioMAP profile that is created from the changes in protein biomarker readouts within individual system environments. Biomarker readouts (7-17 per system) are selected for therapeutic and biological relevance, are predictive for disease outcomes or specific drug effects and are validated using agents with known mechanism of action (MoA). Each readout is measured quantitatively by immune-based methods that detect protein (e.g., ELISA) or functional assays that measure proliferation and viability. BioMAP readouts are diverse and include cell surface receptors, cytokines, chemokines, matrix molecules and enzymes.
(§4) The Diversity PLUS panel allows test agent characterization in an unbiased way across a broad set of systems modeling various human disease states. These systems are designed to model complex human tissue and disease biology of the vasculature, skin, lung, and inflammatory tissues.
(§5) BioMAP systems are constructed with one or more primary cell types from healthy human donors, with stimuli (such as cytokines or growth factors) added to capture relevant signaling networks that naturally occur in human tissue or pathological conditions. Vascular biology is modeled in both a Th1 (3C system) and a Th2 (4H system) inflammatory environment, as well as in a Th1 inflammatory state specific to arterial smooth muscle cells (CASM3C system). Additional systems recapitulate aspects of the systemic immune response including monocyte-driven Th1 inflammation (LPS system) or T cell stimulation (SAg system), chronic Th1 inflammation driven by macrophage activation (lMphg system) and the T cell-dependent activation of B cells that occurs in germinal centers (BT system).

[2] = tested on: Peripheral blood mononuclear cells, B cells; test: BioMAP Diversity PLUS BT system (T cell dependent B cell activation)
Method: as §1, §2, §3, §4, §5

Lung fibroblasts = test: BioMAP Diversity PLUS MyoF system (myofibroblast differentiation and tissue remodeling)
Method: as §1, §2
as §3, with “enzymes. In total, the Diversity PLUS panel contains 148 biomarker readouts that capture biological changes that occur within the physiological context of the particular BioMAP system. Specific BioMAP activities have been correlated to in vivo biology, and multiparameter BioMAP profiles have been used to distinguish compounds based on MoA and target selectivity across diverse physiological systems.” for “enzymes.”
(§6) The Diversity PLUS panel allows test agent characterization in an unbiased way across a broad set of systems modeling various human disease states. These systems are designed to model complex human tissue and disease biology of the vasculature, skin, lung, and inflammatory tissues. Quantitative measurements of 148 biomarker activities across this broad panel, along with comparative analysis of biological activities from known bioactive agents, were used to predict and compare the efficacy and function of each selected compound at four concentrations (740 nm and 2.2, 6.7 and 20 μM). […]

[3] = tested on: Venular endothelial cells, peripheral blood mononuclear cells; test: BioMAP Diversity PLUS SAg system (T cell stimulation, Th1 type chronic inflammation); settings: for Significant log10 reduction compared to nontreated controls: T cell proliferation: SAg system; for T cell proliferation: concentrations ranging from 740 nm to 6.7 μM (FIG. 2)
Method: as §1, §2
as §3, with “enzymes. In total, the Diversity PLUS panel contains 148 biomarker readouts that capture biological changes that occur within the physiological context of the particular BioMAP system. Specific BioMAP activities have been correlated to in vivo biology, and multiparameter BioMAP profiles have been used to distinguish compounds based on MoA and target selectivity across diverse physiological systems.” for “enzymes.”
as §6

Dermal fibroblasts = test: BioMAP Diversity PLUS HDF3CGF system (wound healing and matrix/tissue remodeling); settings: for decorin: human cell system mimicking wound healing, remodeling, fibrosis and chronic inflammation (FIG. 7)
Method: as §1, §2, §3, §4, §5

[4] = tested on: Macrophages, venular endothelial cells; test: BioMAP Diversity PLUS lMphg system (Th1 type chronic inflammation, macrophage activation); settings: /Mphg system; 2.2 μM
Method: as §1, §2
as §3, with “enzymes. In total, the Diversity PLUS panel contains 148 biomarker readouts that capture biological changes that occur within the physiological context of the particular BioMAP system. Specific BioMAP activities have been correlated to in vivo biology, and multiparameter BioMAP profiles have been used to distinguish compounds based on MoA and target selectivity across diverse physiological systems.” for “enzymes.”
as §6

[5] = human cell system mimicking T-cell driven chronic inflammation and autoimmune diseases

NCCCCC(=O)O [5-aminovalerate]
Significant log10 reduction compared to nontreated controls: Secreted prostaglandin E2 (PGE2) ([1]; LPS system, 6.7 μM): −0.10 log10 | secretion of prostaglandin E2 (PGE2) [1]: lowered | Significant log10 reduction compared to nontreated controls: Tumor necrosis factor alpha (TNFα) ([2]; BT system, 6.7 μM): −0.11 log10 | Significant log10 reduction compared to nontreated controls: Decorin (Lung fibroblasts; 6.7 μM): −0.07 log10 | Significant log10 reduction compared to nontreated controls: Decorin (Lung fibroblasts; 20.0 μM): −0.10 log10 | Significant log10 reduction compared to nontreated controls: T cell proliferation ([3]; 0.7 μM): −0.7 log10 | Significant log10 reduction compared to nontreated controls: T cell proliferation ([3]; 2.2 μM): −0.12 log10 | Significant log10 reduction compared to nontreated controls: T cell proliferation ([3]; 6.7 μM): −0.14 log10 | T cell proliferation [3, 5]: decreased | decorin (Dermal fibroblasts): inhibitory activity

N[C@@H](CCC(=O)NCC(=O)O)C(=O)O [Gamma-glutamylglycine]
secretion of prostaglandin E2 (PGE2) [1]: lowered | Significant log10 reduction compared to nontreated controls: Secreted interleukin 17A ([2]; BT system, 0.7 μM): −0.17 log10 | Significant log10 reduction compared to nontreated controls: Secreted interleukin 17A (IL-17A) ([2]; BT system, 2.2 μM): −0.17 log10 | interleukin 17A (IL-17A) ([2]; human cell system mimicking asthma, autoimmunity and allergies (FIG. 5)): lowered | Significant log10 reduction compared to nontreated controls: T cell proliferation ([3]; 6.7 μM): −0.11 log10 | Significant log10 reduction compared to nontreated controls: T cell proliferation ([3]; 20.0 μM): −0.07 log10 | CD40 ([3]; human cell system mimicking T-cell driven chronic inflammation and autoimmune diseases, 740 nm, 2.2 μM, and 6.7 μM (FIG. 3)): lowered | T cell proliferation [3, 5]: decreased | decorin (Dermal fibroblasts): inhibitory activity

CC(=O)NCCc1c[nH]cn1 [N-acetylhistamine]
Significant log10 reduction compared to nontreated controls: B cell proliferation ([2]; BT system, 2.2 μM): −0.12 log10 | Significant log10 reduction compared to nontreated controls: B cell proliferation ([2]; BT system, 6.7 μM): −0.06 log10 | Significant log10 reduction compared to nontreated controls: B cell proliferation ([2]; BT system, 20.0 μM): −0.08 log10 | Significant log10 reduction compared to nontreated controls: Secreted interleukin 17A (IL-17A) ([2]; BT system, 20.0 μM): −0.19 log10 | Significant log10 reduction compared to nontreated controls: Secreted interleukin 17F (IL-17F) ([2]; BT system, 20.0 μM): −0.42 log10 | Significant log10 reduction compared to nontreated controls: Alpha smooth muscle actin (αSMA) (Lung fibroblasts; 0.7 μM): −0.05 log10 | Significant log10 reduction compared to nontreated controls: Alpha smooth muscle actin (αSMA) (Lung fibroblasts; 2.2 μM): −0.06 log10 | Significant log10 reduction compared to nontreated controls: Alpha smooth muscle actin (αSMA) (Lung fibroblasts; 6.7 μM): −0.11 log10 | Significant log10 reduction compared to nontreated controls: Alpha smooth muscle actin (αSMA) (Lung fibroblasts; 20.0 μM): −0.09 log10 | Significant log10 reduction compared to nontreated controls: Vascular cell adhesion molecule 1 (VCAM-1) (Dermal fibroblasts; HDF3CGF system, 6.7 μM): −0.08 log10 | Significant log10 reduction compared to nontreated controls: Collagen III (Dermal fibroblasts; HDF3CGF system, 20.0 μM): −0.13 log10 | Significant log10 reduction compared to nontreated controls: Vascular cell adhesion molecule 1 (VCAM-1) (Dermal fibroblasts; HDF3CGF system, 20.0 μM): −0.15 log10 | Significant log10 reduction compared to nontreated controls: Monocyte chemoattractant protein 1 (MCP-1) [4]: −0.26 log10

O=C(O)Cc1c[nH]cn1 [4-imidazoleacetate]
Significant log10 reduction compared to nontreated controls: Secreted interleukin 17F (IL-17F) ([2]; BT system, 0.7 μM): −0.16 log10 | Significant log10 reduction compared to nontreated controls: T cell proliferation ([3]; 2.2 μM): −0.11 log10 | Significant log10 reduction compared to nontreated controls: T cell proliferation ([3]; 6.7 μM): −0.09 log10 | Significant log10 reduction compared to nontreated controls: T cell proliferation ([3]; 20.0 μM): −0.09 log10 | T cell proliferation [3, 5]: decreased
